Data as given in BindingDB's records for doi:10.7270/Q2N8786X (Vanderbilt Screening Center For Gpcrs, Ion Channels and …, 2009).

Target: T1, Muscarinic acetylcholine receptor M5 (Homo sapiens, UniProt P08912)
T1 sequence (P08912 whole entry): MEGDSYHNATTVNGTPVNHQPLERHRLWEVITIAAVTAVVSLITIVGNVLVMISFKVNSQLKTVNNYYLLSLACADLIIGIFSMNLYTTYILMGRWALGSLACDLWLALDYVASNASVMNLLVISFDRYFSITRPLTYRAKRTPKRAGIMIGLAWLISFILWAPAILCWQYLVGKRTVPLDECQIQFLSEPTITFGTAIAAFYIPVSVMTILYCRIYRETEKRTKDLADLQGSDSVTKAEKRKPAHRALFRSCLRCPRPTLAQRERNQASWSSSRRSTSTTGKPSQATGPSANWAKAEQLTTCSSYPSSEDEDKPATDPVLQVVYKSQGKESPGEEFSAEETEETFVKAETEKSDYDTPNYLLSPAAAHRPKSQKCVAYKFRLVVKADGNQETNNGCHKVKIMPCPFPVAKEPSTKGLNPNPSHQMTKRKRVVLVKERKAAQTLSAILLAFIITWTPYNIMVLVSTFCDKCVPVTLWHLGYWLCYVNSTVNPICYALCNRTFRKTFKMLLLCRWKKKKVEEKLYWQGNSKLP
Assay: binding competition at muscarinic M5 – biochemical, [3H]N-methylscopolamine (AID 2192)
Conditions: inactive by the depositor's call

## COc1ccc(CN2C(=O)C(=O)c3cc(OC(F)(F)F)ccc32)cc1 [VU0238429]
  Ki: 1160 nM
